Earlier results on one molecule are cited in patent publication US9192588B2, “Method for producing a zeaxanthin-enriched chicken egg” (JX NIPPON OIL & ENERGY CORPORATION, priority 2011, dated 2015).

Read-outs that look alike come from different tables or passages of the source.

The conditions of the series: human.
The mark [1] stands for this setting: twice the initial dose for further 6 months.

On to `CC1=C(/C=C/C(C)=C/C=C/C(C)=C/C=C/C=C(C)/C=C/C=C(C)/C=C/C2=C(C)C[C@@H](O)CC2(C)C)C(C)(C)C[C@H](O)C1` [chemically synthesized zeaxanthin, zeaxanthin], for which the “blood zeaxanthin concentration after intake” value by setting is: (12.6 mg every day for 6 months) 0.85 µM; under setting [1], 1.09 µM. Also, the “proportion of the increase to the intake” value reads like this: (12.6 mg every day for 6 months) 0.06 μM/(mg/Day); under setting [1], 0.01 μM/(mg/Day). For the same molecule, for the setting “before intake”, the “initial blood zeaxanthin concentration” value is 0.04 µM.
